The values that follow come from US9388179B2, “N-substituted indazole sulfonamide compounds with selective activity in voltage-gated sodium channels” (Merck Sharp & Dohme Corp., priority 2012, dated 2016).

Molecules are shown by their SMILES.

Common to all, as to assay type: cell-based
Test [1] deals with T1, human Nav1.5 channels stably expressed in HEK 293 cells (Homo sapiens, UniProt Q14524).
T1 construct: expressed in transfected cells; host or cells: HEK 293
The experiment in a line: IonWorks Quattro automated patch-clamp, inactivated state block. The note with it: IonWorks technique. How it is done: (§1) For all electrophysiology experiments, offline analysis was used to correct for current rundown and to determine percent inhibition as a function of drug concentration. IC50 values were determined by fitting to the Hill equation.
(§2) Cell Based Assays for Nav 1.7 and Nav 1.5 Activity
(§3) Compounds were tested on human Nav1.7 and Nav1.5 channels stably expressed in HEK 293 cells. […] Cells were sealed on a planar substrate using the Population Patch […] (PPC) technology. Electrical access was obtained using both nystatin and amphotericin. A double-pulse protocol was used for the determination of IC50 values for inactivated state block. Nav1.7 and Nav1.5 expressing cells were voltage clamped at −100 mV and −110 mV, respectively. A depolarizing prepulse to −10 mV (Nav1.7) or −30 mV (Nav1.5) for 1000 ms followed by a 10 ms repolarization to −100 mV (Nav1.7) or −110 mV (Nav1.5) was given to generate fractional channel inactivation of 50%, followed by a 10 ms test pulse to −10 mV (Nav1.7) or −30 mV (Nav1.5) to measure peak current in control conditions and after compound addition. The following recording solutions were used (mM). External: 150 NaCl, 2 CaCl2, 5 KCl, 1 MgCl2, 10 HEPES, 12 Dextrose; internal: 120 CsF, 30 CsCl, 10 EGTA, 5 HEPES, 5 NaF, 2 MgCl2.

Test [2] deals with T2, human Nav1.7 channels stably expressed in HEK 293 cells (Homo sapiens, UniProt Q15858).
T2 construct: expressed in transfected cells; host or cells: HEK 293
Described as above. The note with it: IonWorks technique; read-out: Nav 1.7 potency. The protocol: as §1, §2, §3
In general terms: Patch clamp records ionic current or voltage across a cell membrane.

For test [3], the target named is T1, human Nav1.5 channels stably expressed in HEK 293 cells. Description: PatchXpress 7000 automated patch-clamp, inactivated state block. The note with it: PatchXpress technique. How it is done:
as §1
(§4) Sodium Current Measurements on the PatchXpress 7000®:
(§5) To measure inactivated state block of sodium channels, test compounds were characterized in an automated PatchXpress® assay (Molecular Devices) using a double-pulse protocol on human Nav1.7 and Nav1.5 channels stably expressed in HEK 293 cells. Cells were held at a potential 20 mV negative to V0.5 inact. An 8000 ms pre-pulse 7 mV positive to V0.5 inact was given followed by a hyperpolarizing 2 ms pulse to −120 mV and a 20 ms test pulse to −20 mV. Protocol was applied to cells in the absence, presence of compound and after washout. The temperature of PatchXpress instruments was maintained at 22° C. The following recording solutions were used. Internal solution (mM): 30 CsCl, 5 HEPES, 10 EGTA, 120 CsF, 5 NaF, 2 MgCl2. External solution (mM): 120 NMDG, 40 NaCl, 1 KCl, 0.5 MgCl2, 5 HEPES, 2.7 CaCl2.

The target of test [4] is T2, human Nav1.7 channels stably expressed in HEK 293 cells. The test is described as above. As to conditions: PatchXpress technique; read-out: Nav 1.7 potency. The protocol:
as §1, §4, §5

Another test has as its target T3, Nav 1.5 (Homo sapiens, UniProt Q14524).
T3 construct: expressed in transfected cells; host or cells: HEK 293
The experiment in a line: Comparative examples, Nav 1.5 activity (Patch Express or Ion Works, technique not given). As to conditions: Table IX. The protocol: (§6) Potency of the example compounds was assayed using Patch Express or Ion Works techniques, as reported herein. The results are reported below following each example number as follows: Ex-(no.) Nav 1.7 potency (nM) [ratio 1.5:1.7=Nav 1.5 potency (nM)/Nav1.7 potency (nM)].

A further test addresses T4, Nav 1.7 (Homo sapiens, UniProt Q15858).
T4 construct: expressed in transfected cells; host or cells: HEK 293
Description: Comparative examples, Nav 1.7 activity (Patch Express or Ion Works, technique not given). As to conditions: Table IX, read-out: Activity: Nav 1.7 potency. How it is done: as §6

T1 sequence (Q14524 whole entry): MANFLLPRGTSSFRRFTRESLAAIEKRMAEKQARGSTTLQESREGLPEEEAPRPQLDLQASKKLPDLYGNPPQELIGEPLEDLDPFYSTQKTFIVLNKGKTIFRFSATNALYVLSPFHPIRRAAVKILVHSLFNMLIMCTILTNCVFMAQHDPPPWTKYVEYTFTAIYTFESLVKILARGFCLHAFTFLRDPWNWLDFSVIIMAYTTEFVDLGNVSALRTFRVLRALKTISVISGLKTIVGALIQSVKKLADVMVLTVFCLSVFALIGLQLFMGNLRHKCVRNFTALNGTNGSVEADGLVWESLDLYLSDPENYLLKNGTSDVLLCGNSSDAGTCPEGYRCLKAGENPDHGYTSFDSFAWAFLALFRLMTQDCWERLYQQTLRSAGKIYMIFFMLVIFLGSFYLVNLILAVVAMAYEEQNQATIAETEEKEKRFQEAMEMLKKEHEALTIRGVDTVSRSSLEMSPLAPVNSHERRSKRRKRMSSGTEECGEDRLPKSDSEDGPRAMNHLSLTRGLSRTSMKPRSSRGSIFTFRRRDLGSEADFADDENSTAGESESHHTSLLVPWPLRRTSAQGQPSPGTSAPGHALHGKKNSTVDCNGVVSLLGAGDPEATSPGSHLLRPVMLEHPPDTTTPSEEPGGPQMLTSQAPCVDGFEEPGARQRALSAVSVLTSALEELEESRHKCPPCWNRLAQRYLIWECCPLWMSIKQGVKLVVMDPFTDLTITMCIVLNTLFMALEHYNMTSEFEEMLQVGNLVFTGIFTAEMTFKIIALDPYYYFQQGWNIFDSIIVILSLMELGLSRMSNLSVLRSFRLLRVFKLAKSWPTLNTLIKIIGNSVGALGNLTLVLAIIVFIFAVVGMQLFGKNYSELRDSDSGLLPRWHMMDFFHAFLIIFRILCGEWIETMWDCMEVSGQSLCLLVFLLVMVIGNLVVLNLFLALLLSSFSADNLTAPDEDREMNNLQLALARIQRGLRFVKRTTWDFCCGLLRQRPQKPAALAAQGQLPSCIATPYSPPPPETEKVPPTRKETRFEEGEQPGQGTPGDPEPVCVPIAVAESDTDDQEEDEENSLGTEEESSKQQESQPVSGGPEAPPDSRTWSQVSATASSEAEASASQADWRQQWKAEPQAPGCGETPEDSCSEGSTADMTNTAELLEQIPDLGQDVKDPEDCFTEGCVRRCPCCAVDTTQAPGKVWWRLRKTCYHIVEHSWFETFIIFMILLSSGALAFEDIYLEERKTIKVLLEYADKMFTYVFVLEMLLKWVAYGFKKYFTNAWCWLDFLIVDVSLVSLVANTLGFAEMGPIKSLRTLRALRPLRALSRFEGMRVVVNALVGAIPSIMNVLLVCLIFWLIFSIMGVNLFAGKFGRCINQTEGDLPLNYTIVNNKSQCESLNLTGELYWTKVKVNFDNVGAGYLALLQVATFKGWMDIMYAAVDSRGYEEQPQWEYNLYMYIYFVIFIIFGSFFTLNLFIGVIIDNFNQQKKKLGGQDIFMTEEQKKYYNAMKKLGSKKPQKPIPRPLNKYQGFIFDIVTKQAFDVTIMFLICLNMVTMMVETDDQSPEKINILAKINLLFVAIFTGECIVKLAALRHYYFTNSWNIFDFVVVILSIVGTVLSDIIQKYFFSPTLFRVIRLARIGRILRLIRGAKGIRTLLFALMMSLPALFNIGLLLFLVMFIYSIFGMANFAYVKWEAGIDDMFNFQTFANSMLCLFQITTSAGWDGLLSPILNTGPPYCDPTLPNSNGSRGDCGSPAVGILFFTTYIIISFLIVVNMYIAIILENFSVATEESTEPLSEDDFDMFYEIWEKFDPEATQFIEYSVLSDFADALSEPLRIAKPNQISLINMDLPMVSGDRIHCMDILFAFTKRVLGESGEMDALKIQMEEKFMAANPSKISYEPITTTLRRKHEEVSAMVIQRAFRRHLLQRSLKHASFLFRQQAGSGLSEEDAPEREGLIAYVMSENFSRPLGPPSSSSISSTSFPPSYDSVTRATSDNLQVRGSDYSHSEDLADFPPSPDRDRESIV
T3 sequence (Q14524 whole entry): as above

Regarding `O=S(=O)(Nc1ncns1)c1ccc2c(cnn2Cc2ccc(Cl)cc2C2=CCNCCC2)c1` [Ex-17, 1-[4-chloro-2-(2,5,6,7-tetrahydro-1H-azepin-4-yl)benzyl]-N-1,2,4-thiadiazol-5-yl-1H-indazole-5-sulfonamide], the “Ratio 1.5:1.7 = Nav 1.5 potency (nM)/Nav1.7 potency (nM)” value (from here on “Ratio 1.5:1.7 = Nav 1.5 potency”) was 59 in test [1] and 7 in test [3]. The figures for the IC50 in test [2] and in test [4] were 0.559 µM and 4.47 µM, respectively.
`O=S(=O)(Nc1ncc(Cl)s1)c1cc2cnn(Cc3cccc4c3CNCC4)c2cc1F` [Ex-3, N-(5-chlorothiazol-2-yl)-6-fluoro-1-((1,2,3,4-tetrahydroisoquinolin-8-yl)methyl)-1H-indazole-5-sulfonamide]: the “Ratio 1.5:1.7 = Nav 1.5 potency” value came to 91 in test [1] and 636 in test [3]. Further, the figures for the IC50 in test [2] and in test [4] were 0.328 µM and 0.052 µM, respectively.
The corresponding values for `O=S(=O)(Nc1ncns1)c1ccc2c(cnn2Cc2ccc(Cl)cc2-c2cccc3c2CCNC3)c1` [Ex-25, 1-[4-chloro-2-(1,2,3,4-tetrahydroisoquinolin-5-yl)benzyl]-N-1,2,4-thiadiazol-5-yl-1H-indazole-5-sulfonamide] are 23, 10, 1.48 µM and 2.9 µM.
For `NC/C=C/c1ccccc1Cn1ncc2cc(S(=O)(=O)Nc3ncns3)ccc21` [Ex-15, 1-{2-[(1E)-3-aminoprop-1-en-1-yl]benzyl}-N-1,2,4-thiadiazol-5-yl-1H-indazole-5-sulfonamide], the “Ratio 1.5:1.7 = Nav 1.5 potency” value was 207 in test [1] and 237 in test [3]. The IC50 in test [2] amounted to 0.159 µM; in test [4] it was 0.127 µM.
`O=S(=O)(Nc1ncns1)c1ccc2c(cnn2Cc2ccccc2C2=CCNCCC2)c1` [Ex-23, 1-[2-(2,5,6,7-tetrahydro-1H-azepin-4-yl)benzyl]-N-1,2,4-thiadiazol-5-yl-1H-indazole-5-sulfonamide]: the results for the “Ratio 1.5:1.7 = Nav 1.5 potency” value in test [1] and in test [3] were 19 and above 7, respectively. The IC50 in test [2] stood at 1.7 µM; in test [4], 4.47 µM.
As for `O=S(=O)(Nc1nccs1)c1ccc2c(cnn2Cc2ccc(OC(C(F)(F)F)(C(F)(F)F)C(F)(F)F)cc2)c1` [CE-02, 1-(4-(1,1,1,3,3,3-hexafluoro-2-(trifluoro-methyl)propan-2-yloxy)benzyl)-N-(thiazol-2-yl)-1H-indazole-5-sulfonamide], the “Activity: Ratio 1.5:1.7” value on Nav 1.5 is listed as 1. Moreover, the IC50 at Nav 1.7 was found to be 33 µM.
On to `C[C@H](c1cccc2c1CNCC2)n1ncc2cc(S(=O)(=O)Nc3ncns3)c(F)cc21` [Ex-6, (R)-6-fluoro-1-(1-(1,2,3,4-tetrahydroisoquinolin-8-yl)ethyl)-N-(1,2,4-thiadiazol-5-yl)-1H-indazole-5-sulfonamide], for which the “Ratio 1.5:1.7 = Nav 1.5 potency” value in test [1] was 1066; in test [3], 320. In addition, the figures for the IC50 in test [2] and in test [4] were 0.021 µM and 0.094 µM, respectively.
As to `O=S(=O)(Nc1nccs1)c1ccc2nn(Cc3ccc(OC(C(F)(F)F)(C(F)(F)F)C(F)(F)F)cc3)cc2c1` [CE-03, 2-(4-(1,1,1,3,3,3-hexafluoro-2-(trifluoro-methyl)propan-2-yloxy)benzyl)-N-(thiazol-2-yl)-2H-indazole-5-sulfonamide], the “Activity: Ratio 1.5:1.7” value on Nav 1.5 is 1. Also, the IC50 at Nav 1.7 was found to be 33 µM.
With `O=S(=O)(Nc1ncns1)c1cc2cnn(Cc3cccc4c3CNCC4)c2cc1F` [Ex-1, 6-fluoro-1-((1,2,3,4-tetrahydroisoquinolin-8-yl)methyl)-N-(1,2,4-thiadiazol-5-yl)-1H-indazole-5-sulfonamide], the entries for the “Ratio 1.5:1.7 = Nav 1.5 potency” value in test [1] and in test [3] were 311 and 310, respectively. Besides, the IC50 turned out to be 0.106 µM in test [2] and 0.153 µM in test [4].
Turning to `O=S(=O)(Nc1nccs1)c1cc2cnn(Cc3cccc4c3CNCC4)c2cc1F` [Ex-2, 6-fluoro-1-((1,2,3,4-tetrahydroisoquinolin-8-yl)methyl)-N-(thiazol-2-yl)-1H-indazole-5-sulfonamide], the results for the “Ratio 1.5:1.7 = Nav 1.5 potency” value in test [1] and in test [3] were 1200 and 2025, respectively. The values for the IC50 in test [2] and in test [4] were 0.025 µM and 0.02 µM, respectively.
For `O=S(=O)(Nc1ncns1)c1ccc2c(cnn2Cc2ccccc2)c1` [Ex-19, 1-benzyl-N-1,2,4-thiadiazol-5-yl-1H-indazole-5-sulfonamide], the “Ratio 1.5:1.7 = Nav 1.5 potency” value worked out at 39 in test [1] and 6 in test [3]. Besides, the IC50 in test [2] was determined as 0.856 µM; in test [4], 3.03 µM.
`C[C@@H](c1ccccc1)n1ncc2cc(S(=O)(=O)Nc3ncns3)c(F)cc21` [Ex-11, 6-fluoro-1-[(1S)-1-phenylethyl]-N-1,2,4-thiadiazol-5-yl-1H-indazole-5-sulfonamide]: the “Ratio 1.5:1.7 = Nav 1.5 potency” value in test [1] was determined as 11; in test [3], 32. For the same compound, the IC50 in test [2] amounted to 1.48 µM; in test [4], 0.343 µM.
With `CN(C)CCNC(=O)c1cccc(-c2ccccc2Cn2ncc3cc(S(=O)(=O)Nc4ncns4)c(F)cc32)c1` [Ex-8, N-[2-(dimethylamino)ethyl]-2′-{[6-fluoro-5-(1,2,4-thiadiazol-5-ylsulfamoyl)-1H-indazol-1-yl]methyl}biphenyl-3-carboxamide], the “Ratio 1.5:1.7 = Nav 1.5 potency” value in test [1] was determined as 39; in test [3], 27. Also, the IC50 in test [2] turned out to be 0.856 µM; in test [4], 1.13 µM.
In the case of `C[C@H](c1ccccc1)n1ncc2cc(S(=O)(=O)Nc3ncns3)c(F)cc21` [Ex-9, 6-fluoro-1-[(1R)-1-phenylethyl]-N-1,2,4-thiadiazol-5-yl-1H-indazole-5-sulfonamide], the “Ratio 1.5:1.7 = Nav 1.5 potency” value in test [1] is 27; in test [3], 65. Besides, the IC50 turned out to be 1.04 µM in test [2] and 0.41 µM in test [4].
On to `Nc1cc(-c2cc(Cl)ccc2Cn2ncc3cc(S(=O)(=O)Nc4ncns4)ccc32)ccn1` [CE-01, 1-(2-(2-aminopyridin-4-yl)-4-chlorobenzyl)-N-(1,2,4-thiadiazol-5-yl)-1H-indazole-5-sulfonamide], for which, on Nav 1.5, the “Activity: Ratio 1.5:1.7” value is 1. Besides, the IC50 at Nav 1.7 was determined as 27 µM.
